In ChEMBL document CHEMBL1142249, “Identification and optimization of a novel series of [2.2.1]-oxabicyclo imide-based androgen receptor antagonists” (Bioorg Med Chem Lett, 2008):

Experiments:
Androgen receptor [1] = molecular target: T1, Androgen receptor (Homo sapiens, UniProt P10275); assay: Displacement of [3H]DHT from human androgen receptor in MDA453 cells
T1 sequence (P10275 whole entry): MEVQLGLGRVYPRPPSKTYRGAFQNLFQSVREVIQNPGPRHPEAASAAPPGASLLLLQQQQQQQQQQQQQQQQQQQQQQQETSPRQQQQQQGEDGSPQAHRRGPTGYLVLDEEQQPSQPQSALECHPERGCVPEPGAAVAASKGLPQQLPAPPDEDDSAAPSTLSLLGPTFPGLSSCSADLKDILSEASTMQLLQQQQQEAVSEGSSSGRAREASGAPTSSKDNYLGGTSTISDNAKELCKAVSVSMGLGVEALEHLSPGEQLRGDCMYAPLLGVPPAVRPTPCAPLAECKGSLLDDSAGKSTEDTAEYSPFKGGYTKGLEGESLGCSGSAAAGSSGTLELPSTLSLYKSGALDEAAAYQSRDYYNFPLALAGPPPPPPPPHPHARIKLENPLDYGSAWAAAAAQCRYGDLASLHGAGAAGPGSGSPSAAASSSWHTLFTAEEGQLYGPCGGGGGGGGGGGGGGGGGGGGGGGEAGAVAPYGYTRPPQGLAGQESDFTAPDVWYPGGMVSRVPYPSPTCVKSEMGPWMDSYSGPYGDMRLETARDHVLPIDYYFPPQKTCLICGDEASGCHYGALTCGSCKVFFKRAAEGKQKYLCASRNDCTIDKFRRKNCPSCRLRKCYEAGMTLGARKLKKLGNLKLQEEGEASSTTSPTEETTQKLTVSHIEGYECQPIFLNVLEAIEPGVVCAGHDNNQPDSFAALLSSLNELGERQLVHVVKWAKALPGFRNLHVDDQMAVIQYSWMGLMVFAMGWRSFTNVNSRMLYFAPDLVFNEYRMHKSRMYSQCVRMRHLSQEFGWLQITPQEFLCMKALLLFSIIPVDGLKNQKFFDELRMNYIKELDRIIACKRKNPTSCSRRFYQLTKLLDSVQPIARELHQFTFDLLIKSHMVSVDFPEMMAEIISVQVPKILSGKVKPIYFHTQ

Androgen receptor [2] = molecular target: T1, Androgen receptor
Description: Antagonist activity at human androgen receptor in MDA453 cells by alkaline phosphatase reporter gene assay

Liver microsomes = assay: Metabolic stability in human liver microsome assessed per milligram of protein; format: ADME
[3] = Drug level in human CWR22R cells xenografted mouse plasma at 10 mg/kg, po after 1 hr on day 60; format: ADME, organism-based; design: dose 10 mg/kg, route oral; settings: read-out: Drug uptake
[4] = Drug level in human CWR22R cells xenografted mouse plasma at 90 mg/kg, po after 1 hr on day 60; format: ADME, organism-based; design: dose 90 mg/kg, route oral; settings: read-out: Drug uptake
[5] = Drug level in human CWR22R cells xenografted mouse plasma at 10 mg/kg, po after 24 hrs on day 60; format: ADME, organism-based; design: dose 10 mg/kg, route oral; settings: read-out: Drug uptake
[6] = Drug level in human CWR22R cells xenografted mouse plasma at 90 mg/kg, po after 24 hrs on day 60; format: ADME, organism-based; design: dose 90 mg/kg, route oral; settings: read-out: Drug uptake
[7] = Cmax in BALB/c mouse at 1.0 mmol/kg, po; format: ADME, organism-based; design: dose 1 mmol/kg, route oral; settings: in vivo
[8] = Tmax in BALB/c mouse at 1.0 mmol/kg, po; format: ADME, organism-based; settings: in vivo
[9] = AUC (0 to 6 hrs) in BALB/c mouse at 1.0 mmol/kg, po; format: ADME, organism-based; design: dose 1 mmol/kg, time < 6 hr, route oral; settings: plasma
[10] = Drug level in human CWR22R cells xenografted mouse plasma at 50 mg/kg, po after 1 hr on day 60; format: ADME, organism-based; design: dose 50 mg/kg, route oral; settings: read-out: Drug uptake
[11] = Drug level in human CWR22R cells xenografted mouse plasma at 50 mg/kg, po after 24 hrs on day 60; format: ADME, organism-based; design: dose 50 mg/kg, route oral; settings: read-out: Drug uptake

Structure (SMILES) | Ki (Androgen receptor [1]) [nM] | IC50 (Androgen receptor [2]) [nM] | also measured
O=C1[C@@H]2C3CCC(O3)[C@@H]2C(=O)N1c1cccc(C(F)(F)F)c1 | 4100 | 11500 | 
CC12CCC(C)(O1)[C@H]1C(=O)N(c3ccc(C#N)n4nccc34)C(=O)[C@H]12 | 18 | 88 | 
CC12C[C@H](O)C(C)(O1)[C@@H]1C(=O)N(c3ccc(C#N)c(I)c3)C(=O)[C@@H]12 (some centres undefined) | 7.18 | 10 | Stability (Liver microsomes): 0.001 mmol/min/mg; concentration at 1 h [3]: 26 µM; concentration at 1 h [4]: 55.5 µM; concentration at 24 h [5]: 8 µM; concentration at 24 h [6]: 23.6 µM
Cc1cc(N2C(=O)[C@@H]3C4CCC(O4)[C@@H]3C2=O)ccc1Cl | 77 | 500 | 
O=C1[C@H]2C3CCC(C3)N2C(=O)N1c1cccc(C(F)(F)F)c1 (some centres undefined) | 21 | 130 | Cmax [7]: 1.74 µM; Tmax [8]: 30 min; AUC(0-t) at 6 h [9]: 11.4 µM·h
CC12CCC(C)(O1)[C@H]1C(=O)N(c3cc(Cl)cc(Cl)c3)C(=O)[C@H]12 | 3 | 16 | 
O=C1[C@@H]2C3CCC(O3)[C@@H]2C(=O)N1c1ccc(Cl)c(Cl)c1 | 377 | 480 | 
O=C1[C@@H]2C3CCC(O3)[C@@H]2C(=O)N1c1ccc(I)c(Cl)c1 | 221 | 350 | 
CC12CCC(C)(O1)[C@H]1C(=O)N(c3c(N)ccc4nccn34)C(=O)[C@H]12 | 27 | 70 | 
CC12CCC(C)(O1)[C@H]1C(=O)N(c3c(N)ccc4ncsc34)C(=O)[C@H]12 | 17 | 120 | 
O=C1[C@@H]2C3CCC(O3)[C@@H]2C(=O)N1c1ccc(Cl)c([N+](=O)[O-])c1 | 692 | 1150 | 
O=C1[C@@H]2C3CCC(O3)[C@@H]2C(=O)N1c1ccc(Cl)c(C(F)(F)F)c1 | 1110 | 3310 | 
CSc1cc(N2C(=O)[C@@H]3[C@H](C2=O)C2(C)CCC3(C)O2)ccc1C#N | 3 | 19 | 
CC12CCC(C)(O1)[C@H]1C(=O)N(c3cccc(C(F)(F)F)c3)C(=O)[C@H]12 | 41 | 36 | 
CC12C[C@@H](O)C(C)(O1)[C@H]1C(=O)N(c3ccc(C#N)c(I)c3)C(=O)[C@H]12 (some centres undefined) | 2.41 | 19 | Stability (Liver microsomes): 0.04 mmol/min/mg
O=C1[C@@H]2C3CCC(C3)[C@@H]2C(=O)N1c1cccc(C(F)(F)F)c1 | 360 | 152 | Cmax [7]: 0.023 µM; Tmax [8]: 30 min; AUC(0-t) at 6 h [9]: 0.056 µM·h
O=C1[C@@H]2C3CCC(O3)[C@@H]2C(=O)N1c1ccc([N+](=O)[O-])c2ccccc12 | 3 | > 5000 | Cmax [7]: 100 µM; Tmax [8]: 30 min; AUC(0-t) at 6 h [9]: 11.4 µM·h
O=C1[C@@H]2C3CCC(O3)[C@@H]2C(=O)N1c1ccc(Br)c2ccccc12 | 53 | 670 | 
CC12CCC(C)(O1)[C@H]1C(=O)N(c3ccc([N+](=O)[O-])c4c(Br)cccc34)C(=O)[C@H]12 | 17 | 40 | 
COc1cc(N2C(=O)[C@@H]3[C@H](C2=O)C2(C)CCC3(C)O2)ccc1-c1cnco1 | 12 | 20 | 
CC12CCC(C)(O1)[C@H]1C(=O)N(c3cnc(C#N)c(Cl)c3)C(=O)[C@H]12 | 4 | 38 | 
CC12CCC(C)(O1)[C@H]1C(=O)N(c3ccc([N+](=O)[O-])c(C(F)(F)F)c3)C(=O)[C@H]12 | 17 | 11 | 
CC12CCC(C)(O1)[C@H]1C(=O)N(c3ccc(C#N)c(I)c3)C(=O)[C@H]12 | 1 | 7 | Stability (Liver microsomes): 0.8 mmol/min/mg
CC12CCC(C)(O1)[C@H]1C(=O)N(c3ccc(C#N)c(C(F)(F)F)c3)C(=O)[C@H]12 | 17 | 7 | 
CC(C)(C)OC(=O)N1CC2CC1[C@@H]1C(=O)N(c3ccc(C#N)c(C(F)(F)F)c3)C(=O)N21 (some centres undefined) | 40 | 774 | 
CC12CCC(O1)[C@H]1C(=O)N(c3cccc(C(F)(F)F)c3)C(=O)[C@H]12 (some centres undefined) | 410 | 343 | 
N#Cc1ccc(N2C(=O)[C@@H]3C4CCC(O4)[C@@H]3C2=O)cc1C(F)(F)F | 1170 | 2860 | 
Cc1ccc(N2C(=O)[C@@H]3C4CCC(O4)[C@@H]3C2=O)cc1Cl | 486 | 2290 | 
CC12CCC(C)(O1)[C@H]1C(=O)N(c3ccc(C#N)c4nsnc34)C(=O)[C@H]12 | 3 | 16 | 
CC(O)(CS(=O)(=O)c1ccc(F)cc1)C(=O)Nc1ccc(C#N)c(C(F)(F)F)c1 (centres undefined) [BICALUTAMIDE] |  |  | Cmax [7]: 110 µM; Tmax [8]: 30 min; AUC(0-t) at 6 h [9]: 786 µM·h; concentration at 1 h [10]: 48.5 µM; concentration at 24 h [11]: 86 µM
